Assay results as given in US7888330B2, “Phosphoramidate derivatives of FAU” (Wayne State University, priority 2005, dated 2011).
pIC50: −log10 of the molar value. “And” between values parts separate entries of the source, which are not always exact repeats. Equal values may be shown once. “Also recorded” adds a separate entry of the source.

Assays:
Renca cells [1] = assay: DNA incorporation studies (PCA acid extraction) in Renca cells; assay type: cell-based, mouse; conditions: 2 hours
Description: (§1) Renca, a mouse renal carcinoma cell line used for these studies, was a gift from Dr. G. Gali Hillman, Wayne State University. Cells were cultured in RPMI-1640 medium containing L-glutamine (Gibco) supplemented with 10% (v/v) fetal bovine serum (FBS), 100 U/mL penicillin, and 0.1 mg/mL streptomycin. Cells were cultured at 37° C. in a humidified incubator with a gas phase of 95% air and 5% CO2.
Two days after seeding 1×10^6 cells in 100×20 mm culture dishes, culture medium was replaced with 1 mL medium containing either 1 μCi/mL of [H-3] FAU or [H-3] FAU-PA. Cells were incubated in a humidified incubator for two hours at 37° C. in an atmosphere of 5% CO2 and 95% air. At the end of the incubation period, radioactive medium was removed and cells were washed three times with ice cold PBS. Then, cells were trypsinized, centrifuged and rewashed three times with ice cold PBS. Cells were lysed with 1 mL of 1M ice-cold perchloric acid solution. The cell lysates were vortexed and centrifuged at 14000 g for 15 minutes. The supernatants were removed, and the pellets were rinsed twice with 1 mL PCA. The acid insoluble fractions were resuspended in 200 μl of Soluene-350. All the acid soluble fractions or supernatants and the acid insoluble fractions were mixed with 5 mL of Ultima Gold scintillation cocktail and counted for 5 minutes on a liquid scintillation counter after an overnight chilling. […]

RAJI cells = assay: Growth inhibition, RAJI cells; assay type: cell-based, human; conditions: 72 hours; for growth inhibition (in words): 3-1000 μM
Description: (§2) The cell lines CEM (T lymphoblastoid cells derived from a human peripheral blood), MOLT-4 (derived from a human acute lymphoblasticleukemia), RAJI (derived from a human Burkitt lymphoma), U-937 (derived from a human histocytic lymphoma), and K-562 (derived from a human chronic myelogenous leukemia) were used to measure the cytotoxicity, as assessed by growth inhibition potential. The cell lines were purchased from the American Type Culture Collection (Vienna, Va.). The cells were grown and maintained as a suspension culture in a RPMI 1640 preparation containing L-glutamine (Biofluids, Rockville, Md.) and 10% (v/v) heat-inactivated fetal calf serum (Invitrogen, Chicago, Ill.); a penicillin-streptomycin solution (Sigma Chemical Co., St. Louis, Mo.) was added to achieve a final concentration of 100 units/mL, and 100 μg/mL respectively. Cells were maintained at 37° C. in a humidified 5% CO2 atmosphere and were passed every 72-96 h to maintain cell densities of approximately 30,000 to 40,000 cells/mL. Under these conditions, the doubling times for CEM cells, MOLT-4 cells, RAJI cells, U-937 cells, and K-562 cells were 21-22 hours.
(§3) FAU and FAUPA were dissolved in deionized water and sterilized by passing through a Millex-GV, 0.22 μm filter, Millipore, Bedford, Mass.
(§4) All cell lines were resuspended in fresh media at 3000 to 3500 cells/mL. To each cell suspension final volume 0.2 mL, was added to achieve 0 to 1000 μM concentration of either FAU or FAU-PA. Control experiments had appropriate amounts of sterile distilled water instead of the drug.

CEM cells = assay: Growth inhibition, CEM cells; assay type: cell-based, human; conditions: 72 hours, cell counting
Description: as §2, §3
(§5) All cell lines were resuspended in fresh media at 3000 to 3500 cells/mL. […]

K-562 cells = assay: Growth inhibition, K-562 cells; assay type: cell-based, human; conditions: 72 hours; for growth inhibition (in words): 3-1000 μM
Description: as §2, §3, §4

[2] = target: T1, mammalian cytosolic thymidine kinase (TK1) (Homo sapiens, UniProt P04183); conditions: relative to thymidine or FMAU (Sun et al., 2003); cited from earlier work
T1 sequence (P04183 1-234): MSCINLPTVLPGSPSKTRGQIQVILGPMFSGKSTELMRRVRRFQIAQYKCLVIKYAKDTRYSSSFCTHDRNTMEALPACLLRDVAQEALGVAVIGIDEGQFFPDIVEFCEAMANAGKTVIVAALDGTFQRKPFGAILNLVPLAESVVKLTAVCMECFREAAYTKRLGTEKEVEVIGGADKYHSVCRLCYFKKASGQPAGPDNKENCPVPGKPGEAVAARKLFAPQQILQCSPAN

U-937 cells = assay: Growth inhibition, U-937 cells; assay type: cell-based, human; conditions: 72 hours
Description: as §2, §3, §5

MOLT-4 cells = assay: Growth inhibition, MOLT-4 cells; assay type: cell-based, human
Description: as §2, §3, §5

pig liver esterase = assay: Pig liver esterase hydrolysis studies; assay type: in vitro ADME; conditions: 1 mg/mL in 0.02 M Na2HPO4, 200 units esterase per mL, 37° C., followed by TLC
Description: Thymidine and phosphoramidate analogs were dissolved in 0.02 M Na2HPO4 at a concentration of 1 mg/mL and 200 units of pig liver esterase per mL solutions (Sigma, St. Louis, Mo.) were added. The mixtures were stirred and maintained at 37° C. through out the course of the experiment. The rate of hydrolysis was followed by thin layer chromatography (TLC) from reaction mixture samples collected at selected intervals. For TLC monitoring, CH2Cl2:MeOH (4:1) and i-PrOH:NH4OH:H2O (7:1:2) mobile phases were used. At the completion of hydrolysis, within 30 minutes, samples were run on a HPLC system.

Renca cells [3] = assay: Tracer uptake studies in Renca cells; assay type: cell-based, mouse; conditions: 2 hours, 1 μCi/mL [H-3] tracer
Description: as §1
Tracer uptake studies were performed using [H-3]FAU (318.2 GBq/mmol, >99% radiochemical purity), and [H-3]FAU-PA (9.25 GBq/mmol, >99% radiochemical purity). Radiochemicals were obtained from Moravek Biochemicals (Brea, Calif.).
Renca cells were seeded at 2×10^5 cells/mL in 6 well plates. After 48 hours, when cells were 50-60% confluent, culture medium was replaced with 1 mL medium containing either 1 μCi/mL of [H-3]FAU or [H-3]FAU-PA. Cells were incubated in a humidified incubator for two hours at 37° C. in an atmosphere of 5% CO2 and 95% air. At the end of the incubation period, radioactive medium was removed, and cells were rinsed three times with ice cold phosphate buffered saline (PBS). Then, cells were trypsinized, centrifuged at 2000 g for 5 minutes and rewashed three times with ice cold PBS. […] All the supernatants and pellet samples were mixed with 5 mL of Ultima Gold scintillation cocktail and counted for 5 minutes in a liquid scintillation counter. […]

Compound: O=c1ccn([C@@H]2O[C@H](CO)[C@@H](O)[C@@H]2F)c(=O)[nH]1 [FAU, 1-(2′-deoxy-2′-fluoro-β-D-arabinofuranosyl)-uracil, reference compound]
- share of total accumulated activity found in the acid insoluble fraction (Renca cells [1]): 80%
- growth inhibition at 1 mM (in words) (RAJI cells; 1 mM, compared with CEM): somewhat less inhibited
- growth inhibition (in words) (RAJI cells): little growth inhibition
- pIC50 (CEM cells): > 4.00
- growth inhibition at 1 mM (K-562 cells; K-562 cells, 1 mM): 40%
- growth inhibition (in words) (K-562 cells; K-562 cells): little growth inhibition
- substrate quality for thymidine kinase (in words) [2]: poor substrate; also recorded: very poor substrate
- growth inhibition at 1 mM (in words) (U-937 cells; 1 mM, compared with CEM): somewhat less inhibited
- growth inhibition at 1 mM (in words) (MOLT-4 cells; 1 mM, 72 hours, compared with CEM): somewhat less inhibited

Compound: COC(=O)C(C)NP(=O)(OCC1OC(n2cc(C)c(=O)[nH]c2=O)C[C@H]1O)Oc1ccccc1 (stereo partly drawn) [thymidine-PA, Methyl thymidine-5′-phenylphosphoryl-P→N-alaninate, reference compound]
- time for hydrolysis by pig liver esterase (pig liver esterase): 15 to 30 min

Compound: COC(=O)C(C)NP(=O)(OCC1OC(n2ccc(=O)[nH]c2=O)C(F)C1O)Oc1ccccc1 [FAU-PA, 1-(2′-deoxy-2′-fluoro-β-D-arabinofuranosyl)-uracil-5′-(phenylmethoxyalaninyl phosphate]
- share of total accumulated activity found in the acid insoluble fraction (Renca cells [1]): 72%
- growth inhibition (in words) (RAJI cells): little growth inhibition
- pIC50 (RAJI cells; Homo sapiens, cell counting): < 4.00
- time for hydrolysis by pig liver esterase (pig liver esterase): ≤ 15 min
- intracellular accumulation of activity, FAU-PA relative to FAU (Renca cells [3]): > 17 fold and 17 fold
- intracellular accumulation of activity, FAU-PA relative to FAU (Renca cells [3]; listed as [H-3]FAU-PA): 17 fold
- pIC50 (CEM cells; Homo sapiens, CCRF-CEM): > 4.22
- pIC50 (K-562 cells; Homo sapiens, K562, K-562 cells (printed K-567), cell counting): < 4.00
- growth inhibition (in words) (K-562 cells; K-562 cells): little growth inhibition
- pIC50 (U-937 cells; Homo sapiens, cell counting): > 4.22
- pIC50 (MOLT-4 cells; Homo sapiens, MOLT-4, 72 hours, cell counting): > 4.22
